According to ChEMBL document CHEMBL2407047, “Molecular design, synthesis and biological evaluation of 1,4-dihydro-4-oxoquinoline ribonucleosides as TcGAPDH inhibitors with trypanocidal activity” (Bioorg Med Chem Lett, 2013):
Active and inactive are the calls of the source.

What was measured:
Saccharomyces cerevisiae [1] = assay: Effect on Saccharomyces cerevisiae TDH3 up to 500 uM
Saccharomyces cerevisiae [2] = assay: Effect on Saccharomyces cerevisiae TDH1 up to 500 uM
Saccharomyces cerevisiae [3] = assay: Effect on Saccharomyces cerevisiae TDH2 up to 500 uM

Measured: Activity

O=C(O)c1cn([C@@H]2O[C@H](CO)[C@@H](O)[C@H]2O)c2ccc(Cl)cc2c1=O
inactive: all assays above

O=C(O)c1cn([C@@H]2O[C@H](CO)[C@@H](O)[C@H]2O)c2ccc(Br)cc2c1=O
inactive: all assays above

Cc1ccc2c(=O)c(C(=O)O)cn([C@@H]3O[C@H](CO)[C@@H](O)[C@H]3O)c2c1
inactive: all assays above

COc1ccc2c(=O)c(C(=O)O)cn([C@@H]3O[C@H](CO)[C@@H](O)[C@H]3O)c2c1
inactive: all assays above

COc1ccc2c(c1)c(=O)c(C(=O)O)cn2[C@@H]1O[C@H](CO)[C@@H](O)[C@H]1O
inactive: all assays above

Cc1ccc2c(c1)c(=O)c(C(=O)O)cn2[C@@H]1O[C@H](CO)[C@@H](O)[C@H]1O
inactive: all assays above

O=C(O)c1cn([C@@H]2O[C@H](CO)[C@@H](O)[C@H]2O)c2cc(Br)ccc2c1=O
inactive: all assays above
